Test results taken from the supplement of paper PMC10307832.

How the values were obtained:
Experiment in all cases: relative viability (nuclei count vs DMSO), 5 days (fraction); higher = more cells survive
[1] = system: NCI-H1734
How it was run: (§1)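 One day after seeding in 1536-well plates, lung cancer cell lines were dosed by pin tool. Dosing was either single-drug or a fixed anchor-drug dose plus five library-drug doses (not always all listed) in √10 steps. After 5 days, nuclei were stained in one fix-and-stain step and counted on 4× images, and relative viability is the nuclei count of treated wells over that of vehicle wells, given as the median of duplicate plates.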

[2] = system: NCI-H3122
How it was run: as §1

[3] = system: HOP-62
How it was run: as §1

[4] = system: NCI-H2126
How it was run: as §1

[5] = system: 201T
How it was run: as §1

[6] = system: NCI-H1755
How it was run: as §1

[7] = system: ChaGo-K-1
How it was run: as §1

[8] = system: NCI-H2009
How it was run: as §1

[9] = system: NCI-H322M
How it was run: as §1

[10] = system: LK-2
How it was run: as §1

[11] = system: NCI-H2170
How it was run: as §1

[12] = system: H3255
How it was run: as §1

[13] = system: NCI-H2087
How it was run: as §1

[14] = system: LXF-289
How it was run: as §1

[15] = system: NCI-H596
How it was run: as §1

[16] = system: CAL-12T
How it was run: as §1

[17] = system: ABC-1
How it was run: as §1

[18] = system: NCI-H441
How it was run: as §1

[19] = system: SK-MES-1
How it was run: as §1

[20] = system: PC-14
How it was run: as §1

[21] = system: EMC-BAC-2
How it was run: as §1

[22] = system: NCI-H1651
How it was run: as §1

[23] = system: NCI-H647
How it was run: as §1

Compound `Cc1cnc(-c2cnc(NCCNc3ccc(C#N)cn3)nc2-c2ccc(Cl)cc2Cl)[nH]1` + O=C(CCCCCCC(=O)Nc1ccccc1)NO [Vorinostat] (partner 1 µM) has a relative viability ([1]; first compound 0.08 µM) of 0.88, a relative viability ([1]; first compound 0.253 µM) of 0.693 and a relative viability ([1]; first compound 0.8 µM) of 0.745. It also gave a relative viability ([1]; first compound 2.53 µM) of 0.661, a relative viability ([2]; first compound 0.08 µM) of 0.989 and a relative viability ([2]; first compound 0.8 µM) of 0.934. It also gave a relative viability ([2]; first compound 2.53 µM) of 0.951, a relative viability ([3]; first compound 0.08 µM) of 0.733 and a relative viability ([3]; first compound 0.8 µM) of 0.545. It also gave a relative viability ([3]; first compound 2.53 µM) of 0.594, a relative viability ([4]; first compound 0.08 µM) of 0.775 and a relative viability ([4]; first compound 0.253 µM) of 0.695. The relative viability ([4]; first compound 0.8 µM) was 0.703, the relative viability ([4]; first compound 2.53 µM) was 0.819 and the relative viability ([5]; first compound 0.08 µM) was 1.01. For the same compound, the relative viability ([5]; first compound 0.8 µM) was 0.977, the relative viability ([5]; first compound 2.53 µM) was 0.912 and the relative viability ([6]; first compound 0.08 µM) was 0.826. The relative viability ([6]; first compound 0.253 µM) was 0.684, the relative viability ([6]; first compound 0.8 µM) was 0.745 and the relative viability ([6]; first compound 2.53 µM) was 0.823. The relative viability ([7]; first compound 0.08 µM) was 0.742, the relative viability ([7]; first compound 0.253 µM) was 0.649 and the relative viability ([7]; first compound 0.8 µM) was 0.604. It also gave a relative viability ([7]; first compound 2.53 µM) of 0.664, a relative viability ([8]; first compound 0.08 µM) of 0.738 and a relative viability ([8]; first compound 0.253 µM) of 0.676. The relative viability ([8]; first compound 0.8 µM) was 0.659, the relative viability ([8]; first compound 2.53 µM) was 0.725 and the relative viability ([9]; first compound 0.08 µM) was 0.843. The relative viability ([9]; first compound 0.253 µM) was 0.878, the relative viability ([9]; first compound 0.8 µM) was 0.874 and the relative viability ([9]; first compound 2.53 µM) was 1.53. The relative viability ([10]; first compound 0.08 µM) was 0.274, the relative viability ([10]; first compound 0.253 µM) was 0.331 and the relative viability ([10]; first compound 0.8 µM) was 0.286. The relative viability ([10]; first compound 2.53 µM) was 0.318, the relative viability ([11]; first compound 0.08 µM) was 0.837 and the relative viability ([11]; first compound 0.8 µM) was 0.734. The relative viability ([11]; first compound 2.53 µM) was 0.714, the relative viability ([12]; first compound 0.08 µM) was 0.599 and the relative viability ([12]; first compound 0.253 µM) was 0.717. It also gave a relative viability ([12]; first compound 0.8 µM) of 0.754, a relative viability ([12]; first compound 2.53 µM) of 0.829 and a relative viability ([13]; first compound 0.08 µM) of 0.871. For the same compound, the relative viability ([13]; first compound 0.8 µM) was 0.514, the relative viability ([13]; first compound 2.53 µM) was 0.663 and the relative viability ([14]; first compound 0.08 µM) was 0.737. The relative viability ([14]; first compound 0.253 µM) was 0.693, the relative viability ([14]; first compound 0.8 µM) was 0.734 and the relative viability ([14]; first compound 2.53 µM) was 0.846. For the same compound, the relative viability ([15]; first compound 0.08 µM) was 0.544, the relative viability ([15]; first compound 0.253 µM) was 0.568 and the relative viability ([15]; first compound 0.8 µM) was 0.501. The relative viability ([15]; first compound 2.53 µM) was 0.688, the relative viability ([16]; first compound 0.08 µM) was 0.928 and the relative viability ([16]; first compound 0.253 µM) was 0.702. For the same compound, the relative viability ([16]; first compound 0.8 µM) was 0.848, the relative viability ([16]; first compound 2.53 µM) was 0.807 and the relative viability ([17]; first compound 0.08 µM) was 1.24. For the same compound, the relative viability ([17]; first compound 0.253 µM) was 0.871, the relative viability ([17]; first compound 0.8 µM) was 1.06 and the relative viability ([17]; first compound 2.53 µM) was 1.15. For the same compound, the relative viability ([18]; first compound 0.08 µM) was 0.823, the relative viability ([18]; first compound 0.8 µM) was 0.737 and the relative viability ([18]; first compound 2.53 µM) was 0.738. It also gave a relative viability ([19]; first compound 0.08 µM) of 1.07, a relative viability ([19]; first compound 0.253 µM) of 0.977 and a relative viability ([19]; first compound 0.8 µM) of 1.19. It also gave a relative viability ([19]; first compound 2.53 µM) of 1.24, a relative viability ([20]; first compound 0.08 µM) of 0.851 and a relative viability ([20]; first compound 0.253 µM) of 0.603. For the same compound, the relative viability ([20]; first compound 0.8 µM) was 0.727, the relative viability ([20]; first compound 2.53 µM) was 0.587 and the relative viability ([21]; first compound 0.08 µM) was 0.46. For the same compound, the relative viability ([21]; first compound 0.253 µM) was 0.397, the relative viability ([21]; first compound 0.8 µM) was 0.373 and the relative viability ([21]; first compound 2.53 µM) was 0.372. The relative viability ([22]; first compound 0.08 µM) was 0.539, the relative viability ([22]; first compound 0.253 µM) was 0.459 and the relative viability ([22]; first compound 0.8 µM) was 0.537. For the same compound, the relative viability ([22]; first compound 2.53 µM) was 0.58, the relative viability ([23]; first compound 0.08 µM) was 0.609 and the relative viability ([23]; first compound 0.253 µM) was 0.399. For the same compound, the relative viability ([23]; first compound 0.8 µM) was 0.743 and the relative viability ([23]; first compound 2.53 µM) was 0.357.
